In patent US10647692B2, “Heterocycle-substituted bicyclic azole pesticides” (FMC Corporation, priority 2015, dated 2020):

Columns and labels:
Assay type in all cases: in vivo
[1] = tested on: green peach aphid (Myzus persicae (Sulzer)); experiment: Test A: control of green peach aphid, foliar spray on pre-infested radish plant; conditions: 144 h, assessed after 6 days; for mortality at 50 ppm: sprayed at 50 ppm; for mortality at 250 ppm: sprayed at 250 ppm
Method: (§1) Test compounds were formulated using a solution containing 10% acetone, 90% water and 300 ppm X-77® Spreader Lo-Foam Formula non-ionic surfactant containing alkylarylpolyoxyethylene, free fatty acids, glycols and isopropanol (Loveland Industries, Inc. Greeley, Colo., USA). The formulated compounds were applied in 1 mL of liquid through a SUJ2 atomizer nozzle with ⅛ JJ custom body (Spraying Systems Co. Wheaton, Ill., USA) positioned 1.27 cm (0.5 inches) above the top of each test unit. Test compounds were sprayed at the rates indicated, and each test was replicated three times.
For evaluating control of green peach aphid (Myzus persicae (Sulzer)) through contact and/or systemic means, the test unit consisted of a small open container with a 12-15-day-old radish plant inside. This was pre-infested by placing on a leaf of the test plant 30-40 aphids on a piece of leaf excised from a culture plant (cut-leaf method). The aphids moved onto the test plant as the leaf piece desiccated. After pre-infestation, the soil of the test unit was covered with a layer of sand.
Test compounds were formulated and sprayed at 250 and/or 50 ppm. After spraying of the formulated test compound, each test unit was allowed to dry for 1 hour and then a black, screened cap was placed on top. The test units were held for 6 days in a growth chamber at 19-21° C. and 50-70% relative humidity. Each test unit was then visually assessed for insect mortality.

[2] = tested on: cotton melon aphid (Aphis gossypii (Glover)); experiment: Test B: control of cotton melon aphid, foliar spray on pre-infested cotton plant; conditions: 144 h, assessed after 6 days; for mortality at 50 ppm: sprayed at 50 ppm; for mortality at 250 ppm: sprayed at 250 ppm
Method: as §1
For evaluating control of cotton melon aphid (Aphis gossypii (Glover)) through contact and/or systemic means, the test unit consisted of a small open container with a 6-7-day-old cotton plant inside. This was pre-infested with 30-40 insects on a piece of leaf according to the cut-leaf method, and the soil of the test unit was covered with a layer of sand.
Test compounds were formulated and sprayed at 250 and/or 50 ppm. After spraying, the test units were maintained in a growth chamber for 6 days at 19° C. and 70% relative humidity. Each test unit was then visually assessed for insect mortality.

[3] = tested on: sweetpotato whitefly (Bemisia tabaci (Gennadius)); experiment: Test E: control of sweetpotato whitefly, sprayed cotton plant infested with eggs; conditions: 312 h, assessed after 13 days; for mortality at 250 ppm: sprayed at 250 ppm
Method: as §1
For evaluating control of the sweetpotato whitefly (Bemisia tabaci (Gennadius)) through contact and/or systemic means, the test unit consisted of a small open container with a 12-14-day-old cotton plant inside. Prior to the spray application, both cotyledons were removed from the plant, leaving one true leaf for the assay. Adult whiteflies were allowed to lay eggs on the plant and then were removed from the test unit. Cotton plants infested with at least 15 eggs were submitted to the test for spraying.
Test compounds were formulated and sprayed at 250 and/or 50 ppm. After spraying, the test units were allowed to dry for 1 hour. The cylinders were then removed, and the units were taken to a growth chamber and held for 13 days at 28° C. and 50-70% relative humidity. Each test unit was then visually assessed for insect mortality.

[4] = tested on: Western Flower Thrips (Frankliniella occidentalis); experiment: Test D: control of Western Flower Thrips, sprayed Soleil bean plant; conditions: held for 7 days
Method: as §1
For evaluating control of Western Flower Thrips (Frankliniella occidentalis) through contact and/or systemic means, the test unit consisted of a small open container with a 5-7-day-old Soleil bean plant inside.
Test compounds were formulated and sprayed at 250 and/or 50 ppm. After spraying, the test units were allowed to dry for 1 hour, and then 22-27 adult thrips were added to the unit. A black, screened cap was placed on the top of each test unit, and the test units were held for 7 days at 25° C. and 45-55% relative humidity.

[5] = tested on: potato leafhopper (Empoasca fabae); experiment: Test C: control of potato leafhopper, sprayed Soleil bean plant, post-infested; conditions: assessed after 6 days
Method: as §1
For evaluating control of potato leafhopper (Empoasca fabae) through contact and/or systemic means, the test unit consisted of a small open container with a 5-6-day-old Soleil bean plant (primary leaves emerged) inside. White sand was added to the top of the soil and one of the primary leaves was excised prior to application.
Test compounds were formulated and sprayed at 250 ppm and/or 50 ppm. After spraying, the test units were allowed to dry for 1 h before they were post-infested with 5 potato leafhoppers (18-21-day-old adults). A black, screened cap was placed on the top of each test unit, and the test units were held for 6 days in a growth chamber at 24° C. and 70% relative humidity. Each test unit was then visually assessed for insect mortality.

Work on `c1cnc(Oc2ccc3nn(-c4cccnc4)cc3c2)nc1` [Compound 42, 2-(3-pyridinyl)-5-(2-pyrimidinyloxy)-2H-indazole] yielded a mortality at 50 ppm [1] of no less than 80%, a mortality at 250 ppm [1] of no less than 80% and a mortality at 50 ppm [2] of no less than 80%. The mortality at 250 ppm [2] was no less than 80%.

`CC(C(=O)NC(C)(C)C#N)c1ccc2nn(-c3cccnc3)cc2c1` (stereo not drawn) [Compound 85, N-(1-cyano-1-methylethyl)-α-methyl-2-(3-pyridinyl)-2H-indazole-5-acetamide] was tested, and the mortality at 250 ppm [3] was no less than 50%, the mortality at 50 ppm [1] was no less than 80% and the mortality at 250 ppm [1] was no less than 80%. The mortality at 50 ppm [2] was no less than 80% and the mortality at 250 ppm [2] was no less than 80%.

Compound `CC(C(=O)NCc1ncccn1)c1ccc2nn(-c3cccnc3)cc2c1` (stereo not drawn) [Compound 59, α-methyl-2-(3-pyridinyl)-N-(2-pyrimidinylmethyl)-2H-indazole-5-acetamide] has a mortality at 250 ppm [3] of no less than 50%, a mortality at 50 ppm [1] of no less than 80% and a mortality at 250 ppm [1] of no less than 80%. It also gave a mortality at 50 ppm [2] of no less than 80% and a mortality at 250 ppm [2] of no less than 80%.

`CSCCC(=O)c1ccc2nn(-c3cccnc3)cc2c1` [Compound 31] was tested, and the “control efficacy (plant damage and/or mortality)” value ([4]; sprayed at 50 ppm) was 40% or less plant damage and/or 100% mortality.

`O=C(NCC(F)(F)F)C(=O)c1ccc2nn(-c3cccnc3)cc2c1` [Compound 48, α-oxo-2-(3-pyridinyl)-N-(2,2,2-trifluoroethyl)-2H-indazole-5-acetamide] showed a mortality at 50 ppm [1] of no less than 80%, a mortality at 250 ppm [1] of no less than 80% and a mortality at 250 ppm [2] of no less than 80%.

With `CC(C)NC(=O)Cc1ccc2nn(-c3cccnc3)cc2c1` [Compound 38, N-(1-methylethyl)-2-(3-pyridinyl)-2H-indazole-5-acetamide] the “control efficacy (plant damage and/or mortality)” value ([4]; sprayed at 250 ppm) was 40% or less plant damage and/or 100% mortality, the mortality at 50 ppm [1] was no less than 80% and the mortality at 250 ppm [1] was no less than 80%. For the same compound, the mortality at 50 ppm [2] was no less than 80% and the mortality at 250 ppm [2] was no less than 80%.

With `FC(F)(F)c1ccc(Oc2ccc3nn(-c4cccnc4)cc3c2)cc1` [Compound 35] the “control efficacy (plant damage and/or mortality)” value ([4]; sprayed at 250 ppm) was 40% or less plant damage and/or 100% mortality.

`COCNCCC(=O)c1ccc2nn(-c3cccnc3)cc2c1` [Compound 32, 3-(methoxymethylamino)-1-[2-(3-pyridinyl)-2H-indazol-5-yl]-1-propanone] was tested, and the “control efficacy (plant damage and/or mortality)” value ([4]; sprayed at 250 ppm) was 40% or less plant damage and/or 100% mortality, the mortality at 50 ppm [1] was no less than 80% and the mortality at 250 ppm [1] was no less than 80%. The mortality at 250 ppm [2] was no less than 80%.

In the case of `CSCCC(=O)c1cccc2nn(-c3cccnc3)cc12` [Compound 2, 3-(methylthio)-1-[2-(3-pyridinyl)-2H-indazol-4-yl]-1-propanone], the “control efficacy (plant damage and/or mortality)” value ([4]; sprayed at 50 ppm) was 40% or less plant damage and/or 100% mortality, the mortality at 50 ppm [1] was no less than 80% and the mortality at 50 ppm [2] was no less than 80%.

With `CC(C)NC(=O)Cc1ccc2nn(-c3cncc(F)c3)cc2c1` [Compound 56] the “control efficacy (mortality)” value ([5]; sprayed at 50 ppm) was no less than 80% and the “control efficacy (mortality)” value ([5]; sprayed at 250 ppm) was no less than 80%.

Compound `CC(C)COc1ccc2nn(-c3cccnc3)cc2c1` [Compound 54, 5-(2-methylpropoxy)-2-(3-pyridinyl)-2H-indazole] has a mortality at 50 ppm ([3]; sprayed at 50 ppm) of no less than 50%, a mortality at 250 ppm [3] of no less than 50% and a mortality at 50 ppm [1] of no less than 80%. It also gave a mortality at 250 ppm [1] of no less than 80%, a mortality at 50 ppm [2] of no less than 80% and a mortality at 250 ppm [2] of no less than 80%.

`O=C(Cc1ccc2nn(-c3cccnc3)cc2c1)NCC(F)(F)F` [Compound 41] was tested, and the “control efficacy (plant damage and/or mortality)” value ([4]; sprayed at 250 ppm) was 40% or less plant damage and/or 100% mortality.
